Laboratory results as given in patent publication US20110123651A1, “DIETARY SUPPLEMENT DRINK FOR DELIVERY OF RESVERATROL AND OTHER POLYPHENOLS” (priority 2009, published 2011).

Experiment: Buccal delivery of resveratrol in humans: free resveratrol in plasma
Format: in vivo
Conditions: human, 1 mg resveratrol in 50 mL solution retained in the mouth for one minute before swallowing, plasma two minutes later, read-out: free resveratrol measured in plasma
Procedure: One efficient way of administering resveratrol in humans may be buccal delivery, that is without immediate swallowing, by direct absorption through the inside of the mouth. As an example, when one mg of resveratrol in 50 mL solution was retained in the mouth for one minute before swallowing, 37 ng/ml of free resveratrol was measured in plasma two minutes later. This level of unchanged resveratrol in blood can only be achieved with 250 mg of resveratrol taken in pill form.

concentration at 2 min: 37 ng/mL
SMILES: Oc1ccc(C=Cc2cc(O)cc(O)c2)cc1 [resveratrol]
